Assay results from US9636418B2 (priority 2013, dated 2017).
Where “and” joins values, the source holds several entries; their conditions need not be identical. Equal entries are not always repeated. Where two headings read alike, the source gives them in different places.

Legend:
hNav1.7 = hNav1.7 (Homo sapiens, UniProt Q15858); assay: cell-based; type: cell-based
hNav1.4 = hNav1.4 (Homo sapiens, UniProt P35499); assay: cell-based; settings: PatchXpress, tonic block; read-out: PX hNav1.4 Tonic IC50
hNav1.4, sequence (P35499 whole entry): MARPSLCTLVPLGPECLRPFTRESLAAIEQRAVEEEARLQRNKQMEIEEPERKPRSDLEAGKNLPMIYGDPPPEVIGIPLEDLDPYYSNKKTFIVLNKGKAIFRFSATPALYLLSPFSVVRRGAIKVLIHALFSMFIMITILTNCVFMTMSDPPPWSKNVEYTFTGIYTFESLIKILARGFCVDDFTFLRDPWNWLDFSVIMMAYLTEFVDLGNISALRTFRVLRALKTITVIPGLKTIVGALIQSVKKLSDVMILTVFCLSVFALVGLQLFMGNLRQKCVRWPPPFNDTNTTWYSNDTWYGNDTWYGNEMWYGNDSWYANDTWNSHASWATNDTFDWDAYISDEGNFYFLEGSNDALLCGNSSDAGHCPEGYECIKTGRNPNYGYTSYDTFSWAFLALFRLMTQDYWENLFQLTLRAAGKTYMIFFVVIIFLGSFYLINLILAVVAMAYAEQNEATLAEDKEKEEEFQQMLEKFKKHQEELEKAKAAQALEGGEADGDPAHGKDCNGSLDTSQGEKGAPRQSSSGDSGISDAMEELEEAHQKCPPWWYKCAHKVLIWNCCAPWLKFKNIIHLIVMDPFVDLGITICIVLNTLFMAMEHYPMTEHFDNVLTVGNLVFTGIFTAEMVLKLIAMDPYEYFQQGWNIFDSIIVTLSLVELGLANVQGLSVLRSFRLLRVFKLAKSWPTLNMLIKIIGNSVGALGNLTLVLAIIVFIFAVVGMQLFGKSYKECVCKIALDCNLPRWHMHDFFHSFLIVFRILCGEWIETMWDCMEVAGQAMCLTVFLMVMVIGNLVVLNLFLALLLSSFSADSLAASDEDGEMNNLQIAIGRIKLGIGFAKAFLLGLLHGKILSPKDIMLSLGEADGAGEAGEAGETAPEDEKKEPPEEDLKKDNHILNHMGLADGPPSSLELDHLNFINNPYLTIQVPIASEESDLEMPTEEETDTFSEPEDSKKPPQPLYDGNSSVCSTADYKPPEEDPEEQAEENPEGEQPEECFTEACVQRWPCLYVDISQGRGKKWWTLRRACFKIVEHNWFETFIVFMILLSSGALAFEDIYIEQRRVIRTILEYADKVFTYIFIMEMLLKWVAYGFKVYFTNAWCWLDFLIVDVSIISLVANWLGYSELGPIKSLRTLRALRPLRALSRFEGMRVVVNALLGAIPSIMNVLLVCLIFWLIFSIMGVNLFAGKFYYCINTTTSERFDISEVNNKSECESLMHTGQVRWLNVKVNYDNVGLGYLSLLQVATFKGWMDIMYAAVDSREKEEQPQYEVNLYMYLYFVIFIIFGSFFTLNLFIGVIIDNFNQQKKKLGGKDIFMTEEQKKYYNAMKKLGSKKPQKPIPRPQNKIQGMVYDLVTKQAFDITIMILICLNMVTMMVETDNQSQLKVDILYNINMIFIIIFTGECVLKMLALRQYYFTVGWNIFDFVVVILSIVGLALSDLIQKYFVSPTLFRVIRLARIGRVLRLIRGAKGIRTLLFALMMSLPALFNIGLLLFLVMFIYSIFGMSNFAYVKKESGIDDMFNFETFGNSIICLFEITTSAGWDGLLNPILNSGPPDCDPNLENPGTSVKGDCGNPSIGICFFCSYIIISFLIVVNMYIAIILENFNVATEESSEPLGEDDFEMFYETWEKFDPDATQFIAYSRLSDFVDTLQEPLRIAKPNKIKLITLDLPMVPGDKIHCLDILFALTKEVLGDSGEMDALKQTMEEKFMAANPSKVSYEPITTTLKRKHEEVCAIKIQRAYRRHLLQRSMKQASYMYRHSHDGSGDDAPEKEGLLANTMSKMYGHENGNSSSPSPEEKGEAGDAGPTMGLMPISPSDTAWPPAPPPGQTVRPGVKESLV

[1] = PatchXpress, tonic block, read-out: PX hNav1.7 Tonic IC50

hNav1.7, sequence (Q15858 whole entry): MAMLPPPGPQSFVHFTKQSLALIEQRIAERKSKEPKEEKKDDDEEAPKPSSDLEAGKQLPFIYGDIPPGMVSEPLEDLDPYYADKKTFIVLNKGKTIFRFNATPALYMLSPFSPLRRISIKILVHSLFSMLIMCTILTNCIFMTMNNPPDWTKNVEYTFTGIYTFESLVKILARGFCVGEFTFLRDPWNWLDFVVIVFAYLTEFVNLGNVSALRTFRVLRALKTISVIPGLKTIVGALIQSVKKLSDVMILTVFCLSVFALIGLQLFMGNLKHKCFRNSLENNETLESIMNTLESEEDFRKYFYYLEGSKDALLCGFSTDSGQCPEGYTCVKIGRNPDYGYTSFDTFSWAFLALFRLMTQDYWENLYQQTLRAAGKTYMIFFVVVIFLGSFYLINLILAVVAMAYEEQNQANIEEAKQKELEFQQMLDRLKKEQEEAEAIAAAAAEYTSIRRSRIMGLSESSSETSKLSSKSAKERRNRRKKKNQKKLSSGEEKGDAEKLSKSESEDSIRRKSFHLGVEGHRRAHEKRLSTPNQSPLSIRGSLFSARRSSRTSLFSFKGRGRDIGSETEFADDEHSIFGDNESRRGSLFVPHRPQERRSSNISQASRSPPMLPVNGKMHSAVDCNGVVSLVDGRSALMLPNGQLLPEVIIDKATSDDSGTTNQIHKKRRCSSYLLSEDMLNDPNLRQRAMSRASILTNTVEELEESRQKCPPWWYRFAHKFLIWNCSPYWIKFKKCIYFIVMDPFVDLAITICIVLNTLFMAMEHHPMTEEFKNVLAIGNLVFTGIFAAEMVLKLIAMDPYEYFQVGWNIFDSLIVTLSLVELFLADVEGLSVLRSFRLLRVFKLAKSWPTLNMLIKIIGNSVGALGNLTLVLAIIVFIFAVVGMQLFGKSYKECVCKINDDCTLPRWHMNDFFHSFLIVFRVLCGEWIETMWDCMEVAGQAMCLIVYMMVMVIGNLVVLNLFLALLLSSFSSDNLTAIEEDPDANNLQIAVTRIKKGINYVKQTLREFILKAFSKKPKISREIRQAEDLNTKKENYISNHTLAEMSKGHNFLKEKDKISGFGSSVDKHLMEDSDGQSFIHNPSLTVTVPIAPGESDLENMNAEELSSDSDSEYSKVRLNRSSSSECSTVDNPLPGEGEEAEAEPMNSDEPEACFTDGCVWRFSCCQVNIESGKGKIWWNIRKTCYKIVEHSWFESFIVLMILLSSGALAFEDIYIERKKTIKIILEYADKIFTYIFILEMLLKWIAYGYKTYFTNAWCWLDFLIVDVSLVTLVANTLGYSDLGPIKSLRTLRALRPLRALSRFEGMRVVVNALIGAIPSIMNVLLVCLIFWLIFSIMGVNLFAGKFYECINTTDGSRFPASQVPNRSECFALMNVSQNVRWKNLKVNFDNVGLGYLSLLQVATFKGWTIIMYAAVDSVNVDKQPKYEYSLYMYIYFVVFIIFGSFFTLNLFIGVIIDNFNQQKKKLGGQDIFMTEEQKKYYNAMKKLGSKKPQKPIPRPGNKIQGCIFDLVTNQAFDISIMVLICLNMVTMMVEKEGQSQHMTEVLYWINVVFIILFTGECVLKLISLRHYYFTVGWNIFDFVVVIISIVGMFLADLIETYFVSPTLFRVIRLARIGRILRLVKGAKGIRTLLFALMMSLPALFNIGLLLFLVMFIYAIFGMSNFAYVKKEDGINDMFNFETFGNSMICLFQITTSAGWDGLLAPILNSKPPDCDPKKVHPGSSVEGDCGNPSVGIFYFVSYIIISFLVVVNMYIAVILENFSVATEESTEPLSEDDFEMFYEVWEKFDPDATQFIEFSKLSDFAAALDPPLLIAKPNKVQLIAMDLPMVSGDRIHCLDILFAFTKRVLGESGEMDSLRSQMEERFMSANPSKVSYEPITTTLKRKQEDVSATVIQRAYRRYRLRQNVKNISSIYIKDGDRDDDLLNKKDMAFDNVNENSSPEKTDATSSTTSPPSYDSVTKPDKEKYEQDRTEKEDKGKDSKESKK

| Compound | IC50 (hNav1.7; [1]) | also measured |
| --- | --- | --- |
| C#CC[C@H](N)C(=O)NCCCC[C@@H]1NC(=O)[C@H](CCCNC(=N)N)NC(=O)[C@H](CCCCN)NC(=O)[C@H](CO)NC(=O)[C@H](CC(=O)O)NC(=O)[C@@H]2CSSC[C@@H]3NC(=O)[C@H](CCC(=O)O)NC(=O)[C@H](CC(C)C)NC(=O)CNC(=O)[C@H](CCC(=O)O)NC(=O)[C@H](CSSC[C@H](NC(=O)[C@H](Cc4ccc(O)cc4)NC(=O)[C@@H](N)CC#N)C(=O)N[C@@H](CCC(N)=O)C(=O)N[C@@H](CCCCN)C(=O)N[C@@H](Cc4c[nH]c5ccccc45)C(=O)N[C@@H](CCCC)C(=O)N[C@@H](Cc4c[nH]c5ccccc45)C(=O)N[C@@H]([C@@H](C)O)C(=O)N2)NC(=O)[C@H](CSSC[C@@H](C(=O)N[C@@H](CCCNC(=N)N)C(=O)N[C@@H](CCCCN)C(=O)N[C@H](C(=O)N[C@H](C(N)=O)[C@@H](C)CC)[C@@H](C)CC)NC(=O)[C@H](Cc2c[nH]c4ccccc24)NC(=O)[C@H](CC(C)C)NC(=O)[C@H](CCCCN)NC3=O)NC1=O [compound 393] | > 100 nM | IC50 (hNav1.4): > 10000 nM |
| C#CC[C@H](N)C(=O)NCCCC[C@@H]1NC(=O)[C@H](CCCNC(=N)N)NC(=O)[C@H](CCCCN)NC(=O)[C@H](CO)NC(=O)[C@H](CC(=O)O)NC(=O)[C@@H]2CSSC[C@@H]3NC(=O)[C@H](CCC(=O)O)NC(=O)[C@H](CC(C)C)NC(=O)CNC(=O)[C@H](CCC(=O)O)NC(=O)[C@H](CSSC[C@H](NC(=O)[C@H](Cc4ccc(O)cc4)NC(=O)[C@@H](N)CC#N)C(=O)N[C@@H](CCC(N)=O)C(=O)N[C@@H](CCCCN)C(=O)N[C@@H](Cc4c[nH]c5ccccc45)C(=O)N[C@@H](CCCC)C(=O)N[C@@H](Cc4c[nH]c5ccccc45)C(=O)N[C@@H]([C@@H](C)O)C(=O)N2)NC(=O)[C@H](CSSC[C@@H](C(=O)N[C@@H](CCCNC(=N)N)C(=O)N[C@@H](CCCCN)C(=O)N[C@@H](Cc2ccc(O)cc2)C(=O)N[C@H](C(N)=O)[C@@H](C)CC)NC(=O)[C@H](Cc2c[nH]c4ccccc24)NC(=O)[C@H](CC(C)C)NC(=O)[C@H](CCCCN)NC3=O)NC1=O [compound 394] | 0.05 nM | IC50 (hNav1.4): 964 nM |
| C#CC[C@H](N)C(=O)NCCCC[C@@H]1NC(=O)[C@H](CCCNC(=N)N)NC(=O)[C@H](CCCCN)NC(=O)[C@H](CO)NC(=O)[C@H](CC(=O)O)NC(=O)[C@@H]2CSSC[C@@H]3NC(=O)[C@H](CCC(=O)O)NC(=O)[C@H](CC(C)C)NC(=O)CNC(=O)[C@H](CCC(=O)O)NC(=O)[C@H](CSSC[C@H](NC(=O)[C@H](Cc4ccc(O)cc4)NC(=O)[C@@H](N)CCC)C(=O)N[C@@H](CCC(N)=O)C(=O)N[C@@H](CCCCN)C(=O)N[C@@H](Cc4c[nH]c5ccccc45)C(=O)N[C@@H](CCCC)C(=O)N[C@@H](Cc4c[nH]c5ccccc45)C(=O)N[C@@H]([C@@H](C)O)C(=O)N2)NC(=O)[C@H](CSSC[C@@H](C(=O)N[C@@H](CCCNC(=N)N)C(=O)N[C@@H](CCCCN)C(=O)N[C@@H](Cc2ccc(O)cc2)C(=O)N[C@H](C(N)=O)[C@@H](C)CC)NC(=O)[C@H](Cc2c[nH]c4ccccc24)NC(=O)[C@H](CC(C)C)NC(=O)[C@H](CCCCN)NC3=O)NC1=O [compound 436] | 2.96 nM |  |
| C#CC[C@H](N)C(=O)NCCCC[C@@H]1NC(=O)[C@H](CCCNC(=N)N)NC(=O)[C@H](CCCCN)NC(=O)[C@H](CO)NC(=O)[C@H](CC(=O)O)NC(=O)[C@@H]2CSSC[C@@H]3NC(=O)[C@H](CCC(=O)O)NC(=O)[C@H](CC(C)C)NC(=O)CNC(=O)[C@H](CCC(=O)O)NC(=O)[C@H](CSSC[C@H](NC(=O)[C@H](Cc4ccc(O)cc4)NC(=O)[C@@H](N)CCC)C(=O)N[C@@H](CCC(N)=O)C(=O)N[C@@H](CCCCN)C(=O)N[C@@H](Cc4c[nH]c5ccccc45)C(=O)N[C@@H](CCCC)C(=O)N[C@@H](Cc4c[nH]c5ccccc45)C(=O)N[C@@H]([C@@H](C)O)C(=O)N2)NC(=O)[C@H](CSSC[C@@H](C(=O)N[C@@H](CCCNC(=N)N)C(=O)N[C@@H](CCCCN)C(=O)N[C@H](C(=O)N[C@@H](Cc2c[nH]c4ccccc24)C(N)=O)[C@@H](C)CC)NC(=O)[C@H](Cc2c[nH]c4ccccc24)NC(=O)[C@H](CC(C)C)NC(=O)[C@H](CCCCN)NC3=O)NC1=O [compound 437] | 9.59 nM |  |
| C#CC[C@H](N)C(=O)NCCCC[C@@H]1NC(=O)[C@H](CCCNC(=N)N)NC(=O)[C@H](CCCCN)NC(=O)[C@H](CO)NC(=O)[C@H](CC(=O)O)NC(=O)[C@@H]2CSSC[C@@H]3NC(=O)[C@H](CCCNC(=N)N)NC(=O)[C@H](CC(C)C)NC(=O)CNC(=O)[C@H](CCC(=O)O)NC(=O)[C@H](CSSC[C@H](NC(=O)[C@H](Cc4ccc(O)cc4)NC(=O)[C@@H](N)CCC)C(=O)N[C@@H](CCC(N)=O)C(=O)N[C@@H](CCCCN)C(=O)N[C@@H](Cc4c[nH]c5ccccc45)C(=O)N[C@@H](CC(C)C)C(=O)N[C@@H](Cc4c[nH]c5ccccc45)C(=O)N[C@@H]([C@@H](C)O)C(=O)N2)NC(=O)[C@H](CSSC[C@@H](C(=O)N[C@@H](CCCNC(=N)N)C(=O)N[C@@H](CCCCN)C(=O)N[C@@H](CCC(=O)O)C(=O)N[C@H](C(N)=O)[C@@H](C)CC)NC(=O)[C@H](Cc2c[nH]c4ccccc24)NC(=O)[C@H](CC(C)C)NC(=O)[C@H](CCCCN)NC3=O)NC1=O [compound 439] | 1.04 nM and 1.37 nM and 0.384 nM and 0.612 nM |  |
| C#CC[C@H](N)C(=O)NCCCC[C@@H]1NC(=O)[C@H](CCCNC(=N)N)NC(=O)[C@H](CCCCN)NC(=O)[C@H](CO)NC(=O)[C@H](CC(=O)O)NC(=O)[C@@H]2CSSC[C@@H]3NC(=O)[C@H](CCC(=O)O)NC(=O)[C@H](CC(C)C)NC(=O)CNC(=O)[C@H](CCC(=O)O)NC(=O)[C@H](CSSC[C@H](NC(=O)[C@H](Cc4ccc(O)cc4)NC(=O)[C@@H](N)CCC)C(=O)N[C@@H](CCC(N)=O)C(=O)N[C@@H](CCCCN)C(=O)N[C@@H](Cc4c[nH]c5ccccc45)C(=O)N[C@@H](CC(C)C)C(=O)N[C@@H](Cc4c[nH]c5ccccc45)C(=O)N[C@@H]([C@@H](C)O)C(=O)N2)NC(=O)[C@H](CSSC[C@@H](C(=O)N[C@@H](CCCNC(=N)N)C(=O)N[C@@H](CCCCN)C(=O)N[C@@H](Cc2ccc(O)cc2)C(=O)N[C@H](C(N)=O)[C@@H](C)CC)NC(=O)[C@H](Cc2c[nH]c4ccccc24)NC(=O)[C@H](CC(C)C)NC(=O)[C@H](CCCCN)NC3=O)NC1=O [compound 440] | 1.95 nM |  |
| C#CC[C@H](N)C(=O)NCCCC[C@@H]1NC(=O)[C@H](CCCNC(=N)N)NC(=O)[C@H](CCCCN)NC(=O)[C@H](CO)NC(=O)[C@H](CC(=O)O)NC(=O)[C@@H]2CSSC[C@@H]3NC(=O)[C@H](CCC(=O)O)NC(=O)[C@H](CC(C)C)NC(=O)CNC(=O)[C@H](CCC(=O)O)NC(=O)[C@H](CSSC[C@H](NC(=O)[C@H](Cc4ccc(O)cc4)NC(=O)[C@@H](N)CCC)C(=O)N[C@@H](CCC(N)=O)C(=O)N[C@@H](CCCCN)C(=O)N[C@@H](Cc4c[nH]c5ccccc45)C(=O)N[C@@H](CC(C)C)C(=O)N[C@@H](Cc4c[nH]c5ccccc45)C(=O)N[C@@H]([C@@H](C)O)C(=O)N2)NC(=O)[C@H](CSSC[C@@H](C(=O)N[C@@H](CCCNC(=N)N)C(=O)N[C@@H](CCCCN)C(=O)N[C@H](C(=O)N[C@@H](Cc2c[nH]c4ccccc24)C(N)=O)[C@@H](C)CC)NC(=O)[C@H](Cc2c[nH]c4ccccc24)NC(=O)[C@H](CC(C)C)NC(=O)[C@H](CCCCN)NC3=O)NC1=O [compound 441] | 10.4 nM |  |
| [1-Nal7]JzTx-V(1-29) [SEQ ID NO: 30] |  | hNav1.7 potency/activity compared with wild type JzTx-V (hNav1.7): retained hNav1.7 activity similar to the wild type peptide |
| [1-Nal24]JzTx-V(1-29) [SEQ ID NO: 43] |  | hNav1.7 potency/activity compared with wild type JzTx-V (hNav1.7): loses considerable activity against hNav1.7 |
| [Phe6,Atz(500 Da EtO-PEG*-{[Phe6,Atz13*]GpTx-1(1-34)})13]GpTx-1(1-34) [Homodimeric Conjugate No. 4] |  | Wash out (hNav1.7): Yes; IC50 (hNav1.7; read-out: Nav1.7 PX IC50): 19 nM |
